Test: log P by HPLC on reversed-phase columns (C 18), EEC directive 79/831 Annex V.A8
Assay type: physicochemical
Conditions: for chromatographic logP: reversed-phase C18 HPLC column, preparation examples, acidic range pH 2.7, formic acid, read-out: log P (HCOOH)
Experimental: The log P values were measured according to EEC directive 79/831 Annex V.A8 by HPLC (High Performance Liquid Chromatography) on reversed-phase columns (C 18), using the method below:
The determination was carried out in the acidic range at pH 2.7 using the mobile phases 0.1% aqueous formic acid and acetonitrile; linear gradient from 10% acetonitrile to 95% acetonitrile.

| log P (pH 2.7) | SMILES | other results |
| --- | --- | --- |
| 3.56 | Cc1ccsc1C=C1C(=O)ON=C1c1ccccc1I [I-107] | – |
| 3.71 | O=C1ON=C(c2ccccc2)C1=Cc1cc(Br)cs1 [U-36] | – |
| 4.45 | O=C1ON=C(c2cc(Br)ccc2Cl)C1=Cc1ccc(Cl)s1 [I-138] | – |
| 3.01 | O=C1ON=C(c2ccc(F)cc2)C1=Cc1cccs1 [I-2] | – |
| 3.79 | COc1cccc(C2=NOC(=O)C2=Cc2ccc(Br)s2)c1 [I-68] | – |
| 4.14 | Cc1cccc(C2=NOC(=O)C2=Cc2ccc(Br)s2)c1 [I-84] | – |
| 5.08 | CC(C)(C)c1ccc(C2=NOC(=O)C2=Cc2ccc(Cl)s2)cc1 [I-40] | – |
| 3.28 | O=C1ON=C(c2cc(F)ccc2Cl)C1=Cc1cccs1 [I-127] | – |
| 3.35 | O=C1ON=C(c2ccccc2[N+](=O)[O-])C1=Cc1ccc(Br)s1 [I-134] | – |
| 3.95 | O=C1ON=C(c2cc(F)ccc2Cl)C1=Cc1sccc1Cl [I-136] | – |
| 4.58 | Cc1ccsc1C=C1C(=O)ON=C1c1ccc(C(C)(C)C)cc1 [I-28] | – |
| 4.70 | O=C1ON=C(c2ccc(Cl)cc2)C1=Cc1cc(-c2ccccc2)cs1 [I-65] | – |
| 3.74 | O=C1ON=C(c2cc(Br)ccc2Cl)C1=Cc1cccs1 [I-128] | – |
| 3.70 | Cc1ccsc1C=C1C(=O)ON=C1c1ccc(Cl)cc1 [I-26] | – |
| – | O=C1CC(c2ccc(Cl)cc2Cl)=NO1 [3-(2,4-dichlorophenyl)isoxazol-5(4H)-one] | chromatographic logP (HPLC): 2.44 |
| 3.70 | O=C1ON=C(c2ccc(Cl)cc2)C1=Cc1ccc([N+](=O)[O-])s1 [I-51] | – |
| 4.23 | O=C1ON=C(c2ccc(Cl)cc2)C1=Cc1sccc1Br [I-61] | – |
| 2.97 | COc1ccc(C2=NOC(=O)C2=Cc2ccc(C)s2)c(OC)c1 [U-25] | – |
| 3.50 | O=C1ON=C(c2ccccc2Cl)C1=Cc1ccc([N+](=O)[O-])s1 [I-104] | – |
| 4.88 | O=C1ON=C(c2ccc(Cl)cc2)C1=Cc1cc(Br)c(Br)s1 [I-45] | – |
| 4.42 | O=C1ON=C(c2ccc(OC(F)(F)F)cc2)C1=Cc1ccc(Cl)s1 [I-36] | – |
| 3.38 | Cc1ccsc1C=C1C(=O)ON=C1c1ccccc1Cl [I-18] | – |
| 4.80 | O=C1ON=C(c2ccccc2OCc2ccccc2)C1=Cc1cc(-c2ccccc2)cs1 [I-114] | – |
| 3.59 | CSc1ccsc1C=C1C(=O)ON=C1c1ccccc1Cl [I-16] | – |
| 3.43 | O=C1ON=C(c2ccccc2OC(F)(F)F)C1=Cc1cccs1 [I-121] | – |

| log P (pH 2.7) | SMILES | other results |
| --- | --- | --- |
| 3.97 | Cc1ccsc1C=C1C(=O)ON=C1c1cc(Br)ccc1Cl [I-132] | – |
| 4.45 | O=C1ON=C(c2ccc(F)cc2)C1=Cc1cc(Br)c(Br)s1 [I-63] | – |
| 3.35 | Cc1ccc(/C=C2\C(=O)ON=C2c2ccccc2)s1 [U-42] | – |
| 4.27 | O=C1ON=C(c2ccc(F)cc2)C1=Cc1cc(-c2ccccc2)cs1 [I-67] | – |
| 3.60 | Cc1cccc(C2=NOC(=O)C2=Cc2sccc2C)c1 [I-86] | – |
| 4.02 | O=C1ON=C(c2cc(Cl)cc(Cl)c2)C1=Cc1cccs1 [I-34] | – |
| 3.36 | O=C1ON=C(c2ccccc2I)C1=Cc1cccs1 [I-108] | – |
| 3.82 | Cc1ccsc1C=C1C(=O)ON=C1c1cccc(C(F)(F)F)c1 [I-91] | – |
| 3.07 | O=C1ON=C(c2cc(F)ccc2F)C1=Cc1cccs1 [I-126] | – |
| 4.23 | COc1ccc(C2=NOC(=O)C2=Cc2cc(-c3ccccc3)cs2)cc1 [I-62] | – |
| 4.02 | Cc1ccsc1C=C1C(=O)ON=C1c1cc(Br)ccc1Br [I-125] | – |
| 4.44 | CCOc1ccccc1C1=NOC(=O)C1=Cc1cc(-c2ccccc2)cs1 [I-112] | – |
| 3.71 | O=C1ON=C(c2ccccc2)C1=Cc1ccc(Br)s1 [I-1] | – |
| 3.76 | COc1cccc(C2=NOC(=O)C2=Cc2cc(Br)cs2)c1 [U-14] | – |
| 4.08 | Cc1cc(C)cc(C2=NOC(=O)C2=Cc2ccc(C)s2)c1 [I-87] | – |
| 3.31 | Cc1ccsc1C=C1C(=O)ON=C1c1cccc(F)c1 [I-102] | – |
| 3.18 | Cc1ccsc1C=C1C(=O)ON=C1c1ccc([N+](=O)[O-])cc1 [U-23] | – |
| 3.29 | Cc1ccc(C=C2C(=O)ON=C2c2ccc([N+](=O)[O-])cc2)s1 [U-24] | – |
| 3.62 | Cc1ccc(C2=NOC(=O)C2=Cc2ccc([N+](=O)[O-])s2)cc1 [U-18] | – |
| 5.30 | Cc1ccc(C2=NOC(=O)C2=Cc2cc(-c3ccccc3)cs2)cc1 [I-69] | – |
| – | O=C1ON=C(c2ccc(Cl)cc2Cl)/C1=C/c1cccs1 [I-4, 3-(2,4-dichlorophenyl)-4-(2-thienylmethylene)isoxazol-5(4H)-one] | chromatographic logP (HPLC): 3.72 |
| 3.61 | CCOc1ccc(C2=NOC(=O)C2=Cc2sccc2C)cc1 [I-82] | – |
| 4.13 | Cc1c(C=C2C(=O)ON=C2c2ccccc2)sc2ccccc12 [I-145] | – |
| 3.73 | Cc1ccc(C2=NOC(=O)C2=Cc2cccs2)cc1C [I-92] | – |
| 3.25 | CCOc1ccccc1C1=NOC(=O)C1=Cc1cccs1 [I-119] | – |

| log P (pH 2.7) | SMILES | other results |
| --- | --- | --- |
| 2.97 | COc1cccc(C2=NOC(=O)C2=Cc2cccs2)c1OC [U-30] | – |
| 3.61 | O=C1ON=C(c2cccc(C(F)(F)F)c2)C1=Cc1cccs1 [I-57] | – |
| 3.40 | O=C1ON=C(c2cccc(Cl)c2)C1=Cc1cccs1 [I-3] | – |
| 3.18 | COc1ccc(C2=NOC(=O)C2=Cc2sccc2C)cc1 [U-11] | – |
| 3.38 | COc1cccc(C2=NOC(=O)C2=Cc2ccc([N+](=O)[O-])s2)c1 [U-15] | – |
| 3.21 | COc1ccc(F)cc1C1=NOC(=O)C1=Cc1sccc1C [U-32] | – |
| 4.16 | O=C1ON=C(c2c(F)cccc2F)C1=Cc1cc(-c2ccccc2)cs1 [I-70] | – |
| 3.65 | COc1ccc(C2=NOC(=O)C2=Cc2sccc2Br)cc1 [I-39] | – |
| 2.98 | Cc1ccccc1C1=NOC(=O)C1=Cc1cccs1 [I-23] | – |
| 3.41 | O=C1ON=C(c2cccc(F)c2)C1=Cc1ccc([N+](=O)[O-])s1 [I-101] | – |
| 3.48 | Cc1cccc(C2=NOC(=O)C2=Cc2cccs2)c1C [I-123] | – |
| 3.03 | O=C1ON=C(c2ccccc2C(F)(F)F)C1=Cc1cccs1 [I-21] | – |
| 4.37 | O=C1ON=C(c2ccc(C(F)(F)F)cc2)C1=Cc1ccc(Cl)s1 [I-71] | – |
| 4.46 | O=C1ON=C(c2ccccc2)C1=Cc1cc(Br)c(Br)s1 [I-111] | – |
| 3.89 | Cc1ccsc1C=C1C(=O)ON=C1c1ccccc1OCc1ccccc1 [I-116] | – |
| 4.31 | Cc1c(C=C2C(=O)ON=C2c2ccccc2Cl)sc2ccccc12 [I-140] | – |
| 4.63 | Cc1c(C=C2C(=O)ON=C2c2ccc(Cl)cc2)sc2ccccc12 [I-144] | – |
| 3.60 | Cc1ccc(C2=NOC(=O)C2=Cc2cccs2)c(C)c1 [I-90] | – |
| 3.17 | Cc1ccsc1C=C1C(=O)ON=C1c1c(F)cccc1F [I-73] | – |
| – | Cc1ccc(C=C2C(=O)ON=C2c2ccccc2Cl)s1 [I-8] | log P (HPLC, acidic range pH 2.7, 0.1% aqueous formic acid and acetonitrile): 3.23 |
| 4.03 | Cc1cc(C)cc(C2=NOC(=O)C2=Cc2sccc2C)c1 [I-88] | – |
| 4.88 | O=C1ON=C(c2ccc(-c3ccccc3)cc2)C1=Cc1ccc(Br)s1 [I-75] | – |
| 3.78 | Cc1cc(C)cc(C2=NOC(=O)C2=Cc2cccs2)c1 [I-89] | – |
| 4.18 | Cc1c(C=C2C(=O)ON=C2c2ccc(F)cc2)sc2ccccc12 [I-143] | – |
| 3.13 | O=C1ON=C(c2cccc(F)c2)C1=Cc1cccs1 [I-100] | – |

| log P (pH 2.7) | SMILES | other results |
| --- | --- | --- |
| 3.27 | Cc1ccc(C=C2C(=O)ON=C2c2ccccc2)s1 [U-3] | – |
| 3.57 | Cc1ccc(C2=NOC(=O)C2=Cc2sccc2C)cc1 [U-8] | – |
| 4.17 | O=C1ON=C(c2ccc(Cl)cc2)C1=Cc1ccc(Cl)s1 [I-46] | – |
| 4.36 | O=C1ON=C(c2ccccc2Cl)C1=Cc1cc(-c2ccccc2)cs1 [I-14] | – |
| 4.05 | Cc1ccc(C2=NOC(=O)C2=Cc2ccc(Cl)s2)cc1 [I-42] | – |
| 3.71 | COc1ccc(C2=NOC(=O)C2=Cc2cc(Br)cs2)cc1 [U-16] | – |
| 4.06 | O=C1ON=C(c2cc(F)ccc2Cl)C1=Cc1ccc(Br)s1 [I-129] | – |
| 3.67 | Cc1cccc(C2=NOC(=O)C2=Cc2ccc(C)s2)c1 [I-85] | – |
| 3.64 | O=C1ON=C(c2cc(Cl)ccc2Cl)C1=Cc1cccs1 [I-35] | – |
| 4.27 | O=C1ON=C(c2ccccc2)C1=Cc1cc(-c2ccccc2)cs1 [I-110] | – |
| – | CC(C)(C)c1ccc(C2=NOC(=O)C2)cc1 [3-(4-tert-butylphenyl)isoxazol-5(4H)-one] | chromatographic logP (HPLC): 3.1 |
| 3.67 | O=C1ON=C(c2ccccc2F)C1=Cc1ccc(Cl)s1 [I-106] | – |
| 4.64 | O=C1ON=C(c2ccccc2Cl)C1=Cc1cc(Br)c(Br)s1 [I-17] | – |
| 4.25 | Cc1ccc(C2=NOC(=O)C2=Cc2sccc2Br)cc1 [I-38] | – |
| 4.45 | COc1ccc(C2=NOC(=O)C2=Cc2cc(Br)c(Br)s2)cc1 [I-44] | – |
| 3.32 | O=C1ON=C(c2ccc(F)cc2)C1=Cc1ccc([N+](=O)[O-])s1 [I-54] | – |
| 3.48 | COc1cc(OC)cc(C2=NOC(=O)C2=Cc2ccc(C)s2)c1 [U-20] | – |
| 4.16 | O=C1ON=C(c2ccc(-c3ccccc3)cc2)C1=Cc1cccs1 [I-66] | – |
| 3.03 | O=C1ON=C(c2ccc([N+](=O)[O-])cc2)/C1=C/c1cccs1 [U-40] | – |
| 3.50 | O=C1ON=C(c2cc(F)ccc2Cl)C1=Cc1ccc([N+](=O)[O-])s1 [I-133] | – |
| 3.25 | O=C1ON=C(c2c(F)cccc2F)C1=Cc1ccc([N+](=O)[O-])s1 [I-76] | – |
| 3.17 | COc1ccc(C2=NOC(=O)C2=Cc2sccc2C)cc1OC [U-26] | – |
| 2.85 | Cc1ccsc1C=C1C(=O)ON=C1c1ccccc1[N+](=O)[O-] [I-135] | – |

| SMILES | log P (pH 2.7) | other results |
| --- | --- | --- |
| O=C1ON=C(c2ccccc2Cl)C1=Cc1cccs1 [I-6] | 3.17 | – |
| O=C1ON=C(c2ccccc2F)C1=Cc1cccs1 [I-22] | 2.95 | – |
| O=C1ON=C(c2cccc(Cl)c2Cl)C1=Cc1cccs1 [I-99] | 3.62 | – |
